Data reported in ChEMBL document CHEMBL4420076, “Amylin and calcitonin receptor agonist” (2017).
Numbered stars: 1 amine (or outer) side, 2 acyl side, 3 side chain; on linkers, the order of the positions; unused ones are H or OH. Peptide text beside a SMILES is read from it. * marks the point of attachment. C20 diacid = O=C(O)CCCCCCCCCCCCCCCCCCC(=O)*; C18 diacid = O=C(O)CCCCCCCCCCCCCCCCC(=O)*; γGlu = O=C(O)[C@H](CCC(=O)[*:2])N[*:1]

How the values were obtained:
[1] = Solubility in 100 mM bistrispropane buffer at pH 8.0 incubated for 18 hrs by UPLC analysis; format: physicochemical
[2] = target: T1, Amylin receptor AMY3; CALCR/RAMP3 (Homo sapiens, UniProt O60896+P30988); assay: Agonist activity at human amylin receptor expressed in BHK570 cells co-expressing RAMP3 assessed as increase in intracellular cAMP concentration incubated for 3 hrs in absence of albumin by CRE luciferase reporter gene assay; format: functional, cell-based
T1 sequence (P30988 whole entry): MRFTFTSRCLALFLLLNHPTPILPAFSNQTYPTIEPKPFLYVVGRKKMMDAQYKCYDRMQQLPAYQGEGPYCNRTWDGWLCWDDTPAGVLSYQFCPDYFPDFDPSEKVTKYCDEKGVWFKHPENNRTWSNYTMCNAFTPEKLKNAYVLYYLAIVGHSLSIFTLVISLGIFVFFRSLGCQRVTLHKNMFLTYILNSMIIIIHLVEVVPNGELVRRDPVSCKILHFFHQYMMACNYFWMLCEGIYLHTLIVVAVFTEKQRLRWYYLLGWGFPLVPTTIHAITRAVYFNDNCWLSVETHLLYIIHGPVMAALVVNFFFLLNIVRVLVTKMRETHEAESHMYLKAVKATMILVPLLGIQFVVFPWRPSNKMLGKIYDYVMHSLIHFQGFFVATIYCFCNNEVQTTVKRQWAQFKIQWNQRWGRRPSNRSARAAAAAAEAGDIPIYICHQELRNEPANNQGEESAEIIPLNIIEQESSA
T1 sequence (O60896 whole entry): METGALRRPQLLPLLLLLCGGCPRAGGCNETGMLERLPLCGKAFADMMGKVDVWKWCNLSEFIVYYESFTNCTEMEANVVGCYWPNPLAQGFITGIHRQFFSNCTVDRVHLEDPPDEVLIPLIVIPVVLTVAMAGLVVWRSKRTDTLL

[3] = Solubility in 100 mM glycylglycine buffer at pH 4.0 incubated for 18 hrs by UPLC analysis; format: physicochemical
[4] = Solubility in 100 mM bistrispropane buffer at pH 6.0 incubated for 18 hrs by UPLC analysis; format: physicochemical
[5] = Solubility in 100 mM bistrispropane buffer at pH 7.0 incubated for 18 hrs by UPLC analysis; format: physicochemical
Calcitonin receptor [6] = target: T2, Calcitonin receptor (Homo sapiens, UniProt P30988); assay: Agonist activity at human calcitonin receptor expressed in BHK570 cells assessed as increase in intracellular cAMP concentration incubated for 3 hrs in absence of albumin by CRE luciferase reporter gene assay; format: functional, cell-based
T2 sequence (P30988 whole entry): T1 sequence (P30988 whole entry)

[7] = Solubility in 100 mM glycylglycine buffer at pH 5.0 incubated for 18 hrs by UPLC analysis; format: physicochemical
[8] = target: T1, Amylin receptor AMY3; CALCR/RAMP3; assay: Displacement of [125I]-labeled rat amylin from human amylin receptor expressed in BHK tkts13 whole cells co-expressing RAMP3 incubated for 60 mins by scintillation proximity assay; format: cell-based
[9] = Solubility in 100 mM bistrispropane buffer at pH 7.5 incubated for 18 hrs by UPLC analysis; format: physicochemical
[10] = target: T1, Amylin receptor AMY3; CALCR/RAMP3; assay: Agonist activity at human amylin receptor expressed in BHK570 cells co-expressing RAMP3 assessed as increase in intracellular cAMP concentration incubated for 3 hrs in presence of 10% FBS by CRE luciferase reporter gene assay; format: functional, cell-based
[11] = Solubility in 100 mM bistrispropane buffer at pH 6.5 incubated for 18 hrs by UPLC analysis; format: physicochemical
[12] = Solubility in 100 mM glycylglycine buffer at pH 3.0 incubated for 18 hrs by UPLC analysis; format: physicochemical
Calcitonin receptor [13] = target: T2, Calcitonin receptor; assay: Agonist activity at human calcitonin receptor expressed in BHK570 cells assessed as increase in intracellular cAMP concentration incubated for 3 hrs in presence of 10% FBS by CRE luciferase reporter gene assay; format: functional, cell-based

| SMILES | solubility at 18 h [1] [µM] | EC50 [2] [nM] | solubility at 18 h [3] [µM] | solubility at 18 h [4] [µM] | solubility at 18 h [5] [µM] | EC50 (Calcitonin receptor [6]) [nM] | solubility at 18 h [7] [µM] | IC50 [8] [nM] | solubility at 18 h [9] [µM] | EC50 [10] [nM] | solubility at 18 h [11] [µM] | solubility at 18 h [12] [µM] | EC50 (Calcitonin receptor [13]) [nM] |
| --- | --- | --- | --- | --- | --- | --- | --- | --- | --- | --- | --- | --- | --- |
| CC(C)C[C@H](NC(=O)[C@H](C)NC(=O)[C@H](C)NC(=O)[C@@H](NC(=O)[C@H](CO)NC(=O)[C@H](CC(C)C)NC(=O)[C@H](CCC(=O)O)NC(=O)[C@H](CO)NC(=O)[C@H](C)NC(=O)CC[C@H](NC(=O)CCCCCCCCCCCCCCCCC(=O)O)C(=O)O)[C@@H](C)O)C(=O)NCC(=O)N[C@@H](CCCNC(=N)N)C(=O)N[C@@H](CC(C)C)C(=O)N[C@@H](CO)C(=O)N[C@@H](C)C(=O)N[C@@H](CCC(=O)O)C(=O)N[C@@H](CC(C)C)C(=O)N[C@@H](Cc1cnc[nH]1)C(=O)N[C@@H](CCC(=O)O)C(=O)N[C@@H](CC(C)C)C(=O)N[C@@H](C)C(=O)N[C@H](C(=O)N[C@@H](CC(C)C)C(=O)N1CCC[C@H]1C(=O)N[C@@H](CCCNC(=N)N)C(=O)N[C@H](C(=O)N[C@@H](CCC(=O)O)C(=O)N[C@H](C(=O)NCC(=O)N[C@@H](CO)C(=O)N[C@@H](CCC(=O)O)C(=O)N[C@@H](CO)C(=O)N1CCC[C@H]1C(N)=O)[C@@H](C)O)[C@@H](C)O)[C@@H](C)O ({C18 diacid-γGlu}-ASELSTAALGRLSAELHELATLPRTETGSESP-NH2) | ≥ 200 | 0.009 | ≥ 200 | ≥ 200 | ≥ 200 | 0.004 | ≥ 200 | 0.83 | ≥ 200 | 0.026 | ≥ 200 | ≥ 200 | – |
| CC(C)C[C@H](NC(=O)[C@H](C)NC(=O)[C@H](C)NC(=O)[C@@H](NC(=O)[C@H](CO)NC(=O)[C@H](CC(C)C)NC(=O)[C@H](CCC(=O)O)NC(=O)[C@H](CO)NC(=O)[C@H](C)NC(=O)CC[C@H](NC(=O)CCCCCCCCCCCCCCCCC(=O)O)C(=O)O)[C@@H](C)O)C(=O)NCC(=O)N[C@@H](CCCNC(=N)N)C(=O)N[C@@H](CC(C)C)C(=O)N[C@@H](CO)C(=O)N[C@@H](C)C(=O)N[C@@H](CCC(=O)O)C(=O)N[C@@H](CC(C)C)C(=O)N[C@@H](Cc1cnc[nH]1)C(=O)N[C@@H](CCC(=O)O)C(=O)N[C@@H](CC(C)C)C(=O)N[C@@H](C)C(=O)N[C@H](C(=O)N[C@@H](CC(C)C)C(=O)N1CCC[C@H]1C(=O)N[C@@H](CCCNC(=N)N)C(=O)N[C@H](C(=O)N[C@@H](CCC(=O)O)C(=O)N[C@H](C(=O)NCC(=O)N[C@@H](CO)C(=O)N1CCC[C@H]1C(=O)N[C@@H](CO)C(=O)N1CCC[C@H]1C(N)=O)[C@@H](C)O)[C@@H](C)O)[C@@H](C)O ({C18 diacid-γGlu}-ASELSTAALGRLSAELHELATLPRTETGSPSP-NH2) | ≥ 200 | 0.013 | ≥ 200 | ≥ 200 | ≥ 200 | 0.008 | ≥ 200 | – | ≥ 200 | 0.039 | ≥ 200 | ≥ 200 | 0.019 |
| CC(C)C[C@H](NC(=O)[C@H](C)NC(=O)[C@H](C)NC(=O)[C@@H](NC(=O)[C@H](CO)NC(=O)[C@H](CC(C)C)NC(=O)[C@H](CCC(=O)O)NC(=O)[C@H](CO)NC(=O)[C@H](C)NC(=O)CC[C@H](NC(=O)CCCCCCCCCCCCCCCCCCC(=O)O)C(=O)O)[C@@H](C)O)C(=O)NCC(=O)N[C@@H](CCCNC(=N)N)C(=O)N[C@@H](CC(C)C)C(=O)N[C@@H](CO)C(=O)N[C@@H](C)C(=O)N[C@@H](CCC(=O)O)C(=O)N[C@@H](CC(C)C)C(=O)N[C@@H](Cc1cnc[nH]1)C(=O)N[C@@H](CCC(=O)O)C(=O)N[C@@H](CC(C)C)C(=O)N[C@@H](CO)C(=O)N[C@H](C(=O)N[C@@H](Cc1ccc(O)cc1)C(=O)N1CCC[C@H]1C(=O)N[C@@H](CCCNC(=N)N)C(=O)N[C@H](C(=O)N[C@@H](CCC(=O)O)C(=O)N[C@H](C(=O)NCC(=O)N[C@@H](CO)C(=O)NCC(=O)N[C@@H](CO)C(=O)N[C@@H](Cc1ccc(O)cc1)C(N)=O)[C@@H](C)O)[C@@H](C)O)[C@@H](C)O ({C20 diacid-γGlu}-ASELSTAALGRLSAELHELSTYPRTETGSGSY-NH2) | ≥ 200 | 0.05 | ≥ 200 | ≥ 200 | ≥ 200 | 0.034 | – | 0.186 | ≥ 200 | 0.064 | ≥ 200 | ≥ 200 | – |
| CC(C)C[C@H](NC(=O)[C@H](C)NC(=O)[C@H](C)NC(=O)[C@@H](NC(=O)[C@H](CO)NC(=O)[C@H](CC(C)C)NC(=O)[C@H](CCC(=O)O)NC(=O)[C@H](CO)NC(=O)[C@H](C)NC(=O)CC[C@H](NC(=O)CCCCCCCCCCCCCCCCCCC(=O)O)C(=O)O)[C@@H](C)O)C(=O)NCC(=O)N[C@@H](CCCNC(=N)N)C(=O)N[C@@H](CC(C)C)C(=O)N[C@@H](CO)C(=O)N[C@@H](CCC(=O)O)C(=O)N[C@@H](CCC(=O)O)C(=O)N[C@@H](CC(C)C)C(=O)N[C@@H](Cc1cnc[nH]1)C(=O)N[C@@H](CCC(=O)O)C(=O)N[C@@H](CC(C)C)C(=O)N[C@@H](C)C(=O)N[C@H](C(=O)N[C@@H](CC(C)C)C(=O)N1CCC[C@H]1C(=O)N[C@@H](CCCNC(=N)N)C(=O)N[C@H](C(=O)N[C@@H](CCC(=O)O)C(=O)N[C@H](C(=O)NCC(=O)N[C@@H](CO)C(=O)NCC(=O)N[C@@H](CO)C(=O)N1CCC[C@H]1C(N)=O)[C@@H](C)O)[C@@H](C)O)[C@@H](C)O ({C20 diacid-γGlu}-ASELSTAALGRLSEELHELATLPRTETGSGSP-NH2) | ≥ 200 | 0.041 | ≥ 200 | ≥ 200 | ≥ 200 | 0.025 | ≥ 200 | – | ≥ 200 | 0.085 | ≥ 200 | ≥ 200 | – |
| CC(C)C[C@H](NC(=O)[C@H](C)NC(=O)[C@H](C)NC(=O)[C@@H](NC(=O)[C@H](CO)NC(=O)[C@H](CC(C)C)NC(=O)[C@H](CCC(=O)O)NC(=O)[C@H](CO)NC(=O)[C@H](C)NC(=O)[C@H](C)NC(=O)[C@H](CCC(=O)O)NC(=O)CC[C@H](NC(=O)CCCCCCCCCCCCCCCCCCC(=O)O)C(=O)O)[C@@H](C)O)C(=O)NCC(=O)N[C@@H](CCCNC(=N)N)C(=O)N[C@@H](CC(C)C)C(=O)N[C@@H](CO)C(=O)N[C@@H](C)C(=O)N[C@@H](CCC(=O)O)C(=O)N[C@@H](CC(C)C)C(=O)N[C@@H](Cc1cnc[nH]1)C(=O)N[C@@H](CCC(=O)O)C(=O)N[C@@H](CC(C)C)C(=O)N[C@@H](C)C(=O)N[C@H](C(=O)N[C@@H](Cc1ccc(O)cc1)C(=O)N1CCC[C@H]1C(=O)N[C@@H](CCCNC(=N)N)C(=O)N[C@H](C(=O)N[C@@H](CCC(=O)O)C(=O)N[C@H](C(=O)NCC(=O)N[C@@H](CO)C(=O)NCC(=O)N[C@@H](CO)C(=O)N1CCC[C@H]1C(N)=O)[C@@H](C)O)[C@@H](C)O)[C@@H](C)O ({C20 diacid-γGlu}-EAASELSTAALGRLSAELHELATYPRTETGSGSP-NH2) | ≥ 200 | 0.017 | ≥ 200 | ≥ 200 | ≥ 200 | 0.015 | ≥ 200 | 1.92 | ≥ 200 | – | ≥ 200 | ≥ 200 | 0.113 |
